Article PMC7259601 (PLoS ONE, 2020)
Where two headings read alike, the source gives them in different places.

Tests used:
Rat pharmacokinetics = format: in vivo, Wistar rats; conditions: for AUC(0-inf) / Cmax / Tmax / AUC(0-t): Wistar; for AUC(0-inf): read-out: Plasma AUCinf; for AUC(0-t): read-out: Plasma AUClast
Protocol: Blood samples were collected at 0, 0.08 (for IV only), 0.25, 0.5, 1, 2, 4, and 6 (Only for PO) 8 and 24 hr for IV and PO group and at three rats were euthanized by using excess CO2 asphyxiation, each at 0.25, 1 and 4 hr post dose and brain was collected. The study was conducted at Sai Advantium Pharma Limited, Pune, India, in accordance with the guidelines of the Institutional Animal Ethics Committee (IAEC). Prior approval was obtained before initiation of the study (IAEC Protocol No. IAEC/PRT/006-11).
Blood samples were collected from each rat at 0.5, 1, 2, 4, 6, 8, 12, and 24 hr (oral gavage) or at 2, 4, 6, 8, 12, 24, 25, 27, 30 and 48 hr (drinking water) were collected from the retro-orbital plexus into labeled tubes, containing K2EDTA solution, as an anticoagulant. Animals were euthanized by using excess CO2 asphyxiation. […] Prior approval was obtained before initiation of the study (IAEC Protocol No. FB-14-069-R-089; IAEC-CPCSEA).
Plasma was harvested from the blood samples harvested in K2EDTA containing tubes by centrifugation at 4000 rpm for 10 min at 4 ± 2 °C and stored below -70 °C until bioanalysis. Brain tissue was homogenized with phosphate buffer saline (pH 7.4). Total homogenate volume was thrice the tissue weight. All samples were processed for analysis by precipitation using Imipramine as internal standard and analyzed with partially validated LC-MS/MS method. Pharmacokinetic parameters were calculated using the non-compartmental analysis tool of WinNonlin® Enterprise software (Pharsight Corp., USA; version 5.2).
Compound levels from 3 samples per timepoint (for a given dose and route of administration), were used to calculated pharmacokinetic parameters using the non-compartmental analysis tool of WinNonlin® Enterprise software (Pharsight Corp., USA; version 5.2).

JMJD1A (h) = JMJD1A (h) (Homo sapiens, UniProt Q9Y4C1); assay: Epigenetic selectivity profile; format: biochemical
Protocol: (§1) […]. MAO-A inhibition at 10 μM was 37%, in line with internal data.

HDAC11 (h) = HDAC11 (h) (Homo sapiens, UniProt Q96DB2); assay: Epigenetic selectivity profile; format: biochemical
Protocol: as §1

HDAC3 (h) = HDAC3 (h) (Homo sapiens, UniProt O15379); assay: Epigenetic selectivity profile; format: biochemical
Protocol: as §1

JARID1A (h) = JARID1A (h) (Homo sapiens, UniProt P29375); assay: Epigenetic selectivity profile; format: biochemical
Protocol: as §1

(h)p300 = (h)p300 (Homo sapiens, UniProt Q09472); assay: Epigenetic selectivity profile; format: biochemical
Protocol: as §1

sirtuin 2 (h) = sirtuin 2 (h) (Homo sapiens, UniProt Q8IXJ6); assay: Epigenetic selectivity profile; format: biochemical
Protocol: as §1

MLL complex (h) = MLL complex (h) (Homo sapiens, UniProt Q03164); assay: Epigenetic selectivity profile; format: biochemical
Protocol: as §1

DNMT1 (h) = DNMT1 (h) (Homo sapiens, UniProt P26358); assay: Epigenetic selectivity profile; format: biochemical
Protocol: as §1

HDAC4 (h) = HDAC4 (h) (Homo sapiens, UniProt P56524); assay: Epigenetic selectivity profile; format: biochemical
Protocol: as §1

JMJD3 (h) = JMJD3 (h) (Homo sapiens, UniProt O15054); assay: Epigenetic selectivity profile; format: biochemical
Protocol: as §1

DOT1L (h) = DOT1L (h) (Homo sapiens, UniProt Q8TEK3); assay: Epigenetic selectivity profile; format: biochemical
Protocol: as §1

SETD7 (h) = SETD7 (h) (Homo sapiens, UniProt Q8WTS6); assay: Epigenetic selectivity profile; format: biochemical
Protocol: as §1

FBXL10 (h) = FBXL10 (h) (Homo sapiens, UniProt Q8NHM5); assay: Epigenetic selectivity profile; format: biochemical
Protocol: as §1

HDAC6 (h) = HDAC6 (h) (Homo sapiens, UniProt Q9UBN7); assay: Epigenetic selectivity profile; format: biochemical
Protocol: as §1

SUV39H1 (h) = SUV39H1 (h) (Homo sapiens, UniProt O43463); assay: Epigenetic selectivity profile; format: biochemical
Protocol: as §1

[1] = target: sirtuin 1 (h) (inhibitor effect) (Homo sapiens, UniProt Q96EB6); assay: Epigenetic selectivity profile; format: biochemical
Protocol: as §1

JMJD2A (h) = JMJD2A (h) (Homo sapiens, UniProt O75164); assay: Epigenetic selectivity profile; format: biochemical
Protocol: as §1

[2] = Wistar rats, oral gavage 10 mg/kg
[3] = male, rat, plasma, po, 5.6 mg/kg/day, Wistar rats, oral drinking water 0.25mg/ml (5,6 mg/kg)
[4] = male, rat, plasma, po, 10 mg/kg, Wistar rats, oral drinking water, dose normalized to 10 mg/Kg
[5] = male, rat, plasma, po, 10 mg/kg, Wistar rats, oral gavage 10 mg/kg
[6] = male, rat, plasma, po, 10 mg/kg, Wistar rats, oral gavage 10 mg/kg (second gavage column)
[7] = male, rat, plasma, po, 10 mg/kg, Wistar rats, oral gavage 10 mg/kg (second gavage column, gavage vs drinking water study)
[8] = male, rat, plasma, Wistar rats, intravenous 2 mg/kg

JARID1A (h), sequence (P29375 whole entry): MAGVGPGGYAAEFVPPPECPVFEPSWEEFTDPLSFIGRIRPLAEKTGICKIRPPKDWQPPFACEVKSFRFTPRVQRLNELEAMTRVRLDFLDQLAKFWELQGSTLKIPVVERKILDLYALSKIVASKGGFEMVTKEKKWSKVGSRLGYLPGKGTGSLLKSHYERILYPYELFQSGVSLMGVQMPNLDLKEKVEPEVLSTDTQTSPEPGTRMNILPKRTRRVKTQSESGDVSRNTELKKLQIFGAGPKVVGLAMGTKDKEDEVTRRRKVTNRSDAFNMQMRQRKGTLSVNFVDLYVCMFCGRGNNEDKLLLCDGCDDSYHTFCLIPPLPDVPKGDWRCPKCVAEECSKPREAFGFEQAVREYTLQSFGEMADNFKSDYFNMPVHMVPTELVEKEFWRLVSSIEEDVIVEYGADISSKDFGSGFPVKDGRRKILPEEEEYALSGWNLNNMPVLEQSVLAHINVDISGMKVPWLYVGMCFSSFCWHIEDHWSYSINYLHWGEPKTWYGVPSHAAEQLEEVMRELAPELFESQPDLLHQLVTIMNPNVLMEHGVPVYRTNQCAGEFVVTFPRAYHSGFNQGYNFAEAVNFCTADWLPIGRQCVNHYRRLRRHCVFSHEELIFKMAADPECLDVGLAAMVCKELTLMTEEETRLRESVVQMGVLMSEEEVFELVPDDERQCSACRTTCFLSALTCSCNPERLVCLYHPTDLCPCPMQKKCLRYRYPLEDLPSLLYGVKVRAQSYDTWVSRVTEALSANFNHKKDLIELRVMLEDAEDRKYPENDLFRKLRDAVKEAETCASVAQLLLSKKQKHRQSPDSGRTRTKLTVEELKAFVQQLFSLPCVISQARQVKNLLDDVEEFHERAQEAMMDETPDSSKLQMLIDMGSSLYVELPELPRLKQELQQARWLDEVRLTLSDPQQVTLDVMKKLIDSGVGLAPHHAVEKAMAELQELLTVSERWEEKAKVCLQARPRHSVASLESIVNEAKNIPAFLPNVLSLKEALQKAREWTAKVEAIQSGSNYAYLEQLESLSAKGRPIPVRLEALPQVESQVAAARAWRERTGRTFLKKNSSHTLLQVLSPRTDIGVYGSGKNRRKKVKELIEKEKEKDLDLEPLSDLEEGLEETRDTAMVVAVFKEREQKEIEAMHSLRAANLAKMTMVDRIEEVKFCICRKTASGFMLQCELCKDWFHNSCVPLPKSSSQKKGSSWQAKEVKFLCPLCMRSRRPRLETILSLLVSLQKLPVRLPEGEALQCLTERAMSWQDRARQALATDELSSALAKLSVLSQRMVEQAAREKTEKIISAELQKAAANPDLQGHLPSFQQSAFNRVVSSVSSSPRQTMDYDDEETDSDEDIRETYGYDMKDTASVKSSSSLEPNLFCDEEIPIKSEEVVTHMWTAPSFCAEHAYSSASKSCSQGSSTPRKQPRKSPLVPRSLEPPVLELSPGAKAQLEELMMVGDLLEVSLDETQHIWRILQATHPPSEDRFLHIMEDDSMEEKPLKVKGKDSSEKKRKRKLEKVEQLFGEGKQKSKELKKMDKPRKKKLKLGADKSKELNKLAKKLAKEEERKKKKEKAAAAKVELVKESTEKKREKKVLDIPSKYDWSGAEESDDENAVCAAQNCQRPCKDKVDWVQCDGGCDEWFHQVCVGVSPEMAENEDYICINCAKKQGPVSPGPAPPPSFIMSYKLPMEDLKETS
DOT1L (h), sequence (Q8TEK3 whole entry): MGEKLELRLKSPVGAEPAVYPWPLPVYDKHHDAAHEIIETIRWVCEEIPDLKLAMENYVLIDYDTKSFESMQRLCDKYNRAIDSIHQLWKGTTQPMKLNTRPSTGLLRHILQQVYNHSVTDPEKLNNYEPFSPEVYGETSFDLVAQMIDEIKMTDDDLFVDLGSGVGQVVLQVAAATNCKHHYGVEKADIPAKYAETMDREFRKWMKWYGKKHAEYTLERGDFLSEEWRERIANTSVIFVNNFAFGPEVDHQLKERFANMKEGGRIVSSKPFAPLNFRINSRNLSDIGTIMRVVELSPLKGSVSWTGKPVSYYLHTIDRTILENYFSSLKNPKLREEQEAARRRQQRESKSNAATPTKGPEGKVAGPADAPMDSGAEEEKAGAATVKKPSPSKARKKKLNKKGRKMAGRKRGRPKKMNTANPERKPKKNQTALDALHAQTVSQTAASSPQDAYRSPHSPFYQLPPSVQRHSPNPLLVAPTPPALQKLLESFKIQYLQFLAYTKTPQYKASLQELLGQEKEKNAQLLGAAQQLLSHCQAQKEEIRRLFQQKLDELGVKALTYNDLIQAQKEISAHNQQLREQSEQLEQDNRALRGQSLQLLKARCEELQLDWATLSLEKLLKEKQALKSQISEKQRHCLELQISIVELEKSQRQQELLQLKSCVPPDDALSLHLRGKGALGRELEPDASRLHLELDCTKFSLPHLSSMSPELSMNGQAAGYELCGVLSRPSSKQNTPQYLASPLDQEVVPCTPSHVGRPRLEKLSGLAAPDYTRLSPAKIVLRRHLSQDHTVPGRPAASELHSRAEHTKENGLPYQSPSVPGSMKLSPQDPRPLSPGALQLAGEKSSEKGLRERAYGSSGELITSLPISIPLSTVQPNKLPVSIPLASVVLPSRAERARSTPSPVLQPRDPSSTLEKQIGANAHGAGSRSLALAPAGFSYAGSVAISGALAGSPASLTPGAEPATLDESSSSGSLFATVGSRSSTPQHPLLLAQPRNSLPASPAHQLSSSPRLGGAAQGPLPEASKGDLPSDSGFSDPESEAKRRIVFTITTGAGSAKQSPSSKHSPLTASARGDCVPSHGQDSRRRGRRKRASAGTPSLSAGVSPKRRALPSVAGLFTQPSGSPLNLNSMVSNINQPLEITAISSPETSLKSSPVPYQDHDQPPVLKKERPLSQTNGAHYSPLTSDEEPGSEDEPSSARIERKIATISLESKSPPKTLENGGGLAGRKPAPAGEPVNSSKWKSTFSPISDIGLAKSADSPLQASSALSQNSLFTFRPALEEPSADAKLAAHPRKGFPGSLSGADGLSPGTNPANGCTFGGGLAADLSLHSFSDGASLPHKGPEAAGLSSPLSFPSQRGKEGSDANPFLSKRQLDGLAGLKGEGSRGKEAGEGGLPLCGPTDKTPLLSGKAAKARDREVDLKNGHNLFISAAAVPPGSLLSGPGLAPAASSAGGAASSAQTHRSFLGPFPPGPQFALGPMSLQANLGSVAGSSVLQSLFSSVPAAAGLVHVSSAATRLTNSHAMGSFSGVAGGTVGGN
sirtuin 1 (h) (inhibitor effect), sequence (Q96EB6 whole entry): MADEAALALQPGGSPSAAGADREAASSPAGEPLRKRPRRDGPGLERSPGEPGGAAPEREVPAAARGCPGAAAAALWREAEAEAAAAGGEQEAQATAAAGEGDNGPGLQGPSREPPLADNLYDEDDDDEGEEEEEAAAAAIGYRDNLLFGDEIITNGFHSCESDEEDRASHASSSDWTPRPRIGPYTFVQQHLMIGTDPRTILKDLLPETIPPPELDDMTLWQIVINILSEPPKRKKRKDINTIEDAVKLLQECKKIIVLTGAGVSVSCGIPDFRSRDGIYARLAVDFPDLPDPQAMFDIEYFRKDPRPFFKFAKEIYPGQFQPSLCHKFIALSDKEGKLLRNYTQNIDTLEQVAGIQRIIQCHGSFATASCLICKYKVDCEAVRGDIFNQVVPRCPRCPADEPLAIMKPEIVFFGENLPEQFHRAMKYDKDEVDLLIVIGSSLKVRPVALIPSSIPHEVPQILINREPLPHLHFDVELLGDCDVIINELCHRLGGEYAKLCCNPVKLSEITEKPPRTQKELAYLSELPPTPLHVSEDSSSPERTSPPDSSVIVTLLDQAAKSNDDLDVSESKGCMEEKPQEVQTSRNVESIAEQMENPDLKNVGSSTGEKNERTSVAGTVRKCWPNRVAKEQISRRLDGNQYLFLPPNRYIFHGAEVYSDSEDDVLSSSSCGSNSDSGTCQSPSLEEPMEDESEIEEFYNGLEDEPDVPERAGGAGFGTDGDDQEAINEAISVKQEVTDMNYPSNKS
HDAC11 (h), sequence (Q96DB2 whole entry): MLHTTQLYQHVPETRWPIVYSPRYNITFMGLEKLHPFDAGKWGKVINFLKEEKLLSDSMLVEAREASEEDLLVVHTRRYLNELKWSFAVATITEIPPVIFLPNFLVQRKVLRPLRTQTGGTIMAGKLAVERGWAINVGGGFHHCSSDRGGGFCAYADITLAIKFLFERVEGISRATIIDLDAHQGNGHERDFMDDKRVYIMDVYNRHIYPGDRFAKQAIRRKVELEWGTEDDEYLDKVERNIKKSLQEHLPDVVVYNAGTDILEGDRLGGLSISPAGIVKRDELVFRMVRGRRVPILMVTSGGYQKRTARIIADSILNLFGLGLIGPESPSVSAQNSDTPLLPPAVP
HDAC3 (h), sequence (O15379 whole entry): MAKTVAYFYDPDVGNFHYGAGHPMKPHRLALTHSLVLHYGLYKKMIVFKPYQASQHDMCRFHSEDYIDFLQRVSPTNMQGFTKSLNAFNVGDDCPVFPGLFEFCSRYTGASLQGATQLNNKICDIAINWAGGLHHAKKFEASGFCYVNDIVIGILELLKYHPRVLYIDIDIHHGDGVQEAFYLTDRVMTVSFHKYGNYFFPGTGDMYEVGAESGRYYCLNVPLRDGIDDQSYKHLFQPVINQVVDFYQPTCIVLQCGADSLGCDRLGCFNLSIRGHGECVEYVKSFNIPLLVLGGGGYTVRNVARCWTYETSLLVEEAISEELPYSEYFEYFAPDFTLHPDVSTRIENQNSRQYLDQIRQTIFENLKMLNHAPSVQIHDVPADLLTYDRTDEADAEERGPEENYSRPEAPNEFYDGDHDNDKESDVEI
HDAC3 (h), sequence (Q9Y618 395-489 partner limits assumed): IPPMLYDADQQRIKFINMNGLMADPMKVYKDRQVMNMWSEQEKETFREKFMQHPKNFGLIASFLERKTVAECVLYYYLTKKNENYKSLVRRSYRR

**Q.** Which results are given for `Nc1nnc(CN[C@@H]2C[C@H]2c2ccc(OCc3ccccc3)cc2)o1` [ORY-2001, vafidemstat]?
**A.** Brain Cmax (Rat pharmacokinetics; [2]): 4957 ng/g; Fpo (Rat pharmacokinetics; [2]): 95%; time for brain compound levels to return to baseline (Rat pharmacokinetics; brain pharmacokinetics (S2A Table)): less than 1 days; AUC(0-inf) (Rat pharmacokinetics; male, rat, plasma, iv, 2 mg/kg, Wistar rats, intravenous 2 mg/kg): 3910 ng·h/mL; Cmax (Rat pharmacokinetics; [3]): 945 ng/mL; Tmax (Rat pharmacokinetics; [3]): 8.67 h; AUC(0-t) (Rat pharmacokinetics; male, rat, plasma, po, 5.6 mg/kg/day, Wistar rats, oral drinking water 0.25mg/ml (5,6 mg/kg), ad libitum 24 hr): 12000 ng·h/mL; AUC(0-inf) (Rat pharmacokinetics; [3]): 12100 ng·h/mL; Cmax (Rat pharmacokinetics; [4]): 1690 ng/mL; Tmax (Rat pharmacokinetics; [4]): 8.67 h; AUC(0-t) (Rat pharmacokinetics; male, rat, plasma, po, 10 mg/kg, Wistar rats, oral drinking water, dose normalized to 10 mg/Kg considering a linear behavior): 21500 ng·h/mL; AUC(0-inf) (Rat pharmacokinetics; [4]): 21700 ng·h/mL; Cmax (Rat pharmacokinetics; [5]): 3400 ng/mL; Tmax (Rat pharmacokinetics; [5]): 0.833 h; Cmax (Rat pharmacokinetics; [6]): 5970 ng/mL; Tmax (Rat pharmacokinetics; [6]): 2 h; AUC(0-inf) (Rat pharmacokinetics; [7]): 35600 ng·h/mL; AUC(0-t) (Rat pharmacokinetics; [7]): 32900 ng·h/mL; AUC(0-inf) (Rat pharmacokinetics; [5]): 21000 ng·h/mL; AUC (Rat pharmacokinetics; male, rat, plasma, po, Wistar rats, p.o. 10 mg/kg, read-out: area-under-the-curve (AUC) (converted)): 21000 ng·h/mL; clearance (Rat pharmacokinetics; [8]): 8.5 mL/min/kg; half-life (Rat pharmacokinetics; [8]): 1.87 h; Vd (Rat pharmacokinetics; male, rat, plasma, Wistar rats, intravenous 2 mg/kg, read-out: Vss): 1.2 L/kg; half-life (Rat pharmacokinetics; male, rat, plasma, Wistar rats, oral gavage 10 mg/kg): 3.28 h; inhibition at 10 µM (JMJD1A (h)): -11%; inhibition at 10 µM (HDAC11 (h)): -2%; inhibition at 10 µM (HDAC3 (h)): -1%; inhibition at 10 µM (JARID1A (h)): 2%; inhibition at 10 µM ((h)p300): 0%; inhibition at 10 µM (sirtuin 2 (h)): 5%; inhibition at 10 µM (MLL complex (h)): 3%; inhibition at 10 µM (DNMT1 (h)): 15%; inhibition at 10 µM (HDAC4 (h)): 0%; inhibition at 10 µM (JMJD3 (h)): 4%; inhibition at 10 µM (DOT1L (h)): -1%; inhibition at 10 µM (SETD7 (h)): -3%; inhibition at 10 µM (FBXL10 (h)): 8%; inhibition at 10 µM (HDAC6 (h)): 0%; inhibition at 10 µM (SUV39H1 (h)): -7%; inhibition at 10 µM [1]: 1%; inhibition at 10 µM (JMJD2A (h)): 7%
